Assays:
[1] = system: canine atrial fibrillation model; settings: cited from earlier work
[2] = system: mitral regurgitation-induced myocardial dysfunction; settings: cited from earlier work
[3] = system: non-diabetic heart failure; settings: by enhancing myocardial energetics; cited from earlier work
[4] = system: adults with heart failure and reduced or preserved ejection fraction, with and without diabetes; settings: cited from earlier work
[5] = system: Dogs With Mitral Valve Disease (MVD); experiment: Example 16 exploratory clinical field trial, velagliflozin plus pimobendan vs pimobendan; assay type: in vivo, dog
Protocol: The described study is a prospective, baseline controlled, unblinded, open-label, multi-site exploratory clinical field trial. Client owned dogs diagnosed with MVD are randomized at different sites to either a pimobendan or a velagliflozin plus pimobendan treatment group. Eight dogs could be successfully enrolled. […] The clinical field trial is further ongoing.
The dogs that enter the study are evaluated regularly including a full physical examination including bodyweight, blood pressure, auscultation of the cardiovascular system, thoracic radiographs to assess heart size, pulmonary edema and congestion, standard echocardiography, ECG, blood and urine evaluation.
The cardiovascular history is evaluated assessing the date of MVD diagnosis and whether there is a history of heart failure. An owner questionnaire is compiled on a regular basis during the study to provide an overview on the overall condition of the dogs, the respiratory rate per minute at resting and the exercise tolerance during the last seven days of treatment.
The dogs included must be diagnosed with MVD stage B2 or stage C via physical examination and echocardiography. Variables of interest are all clinical parameters evaluated in addition to laboratory values, blood pressure, number of events (death or hospitalization for heart failure or euthanasia), the time-to-event duration, the adjustment of diuretic treatment, owner questionnaire data, x-ray results and overall disease progression (requiring additional, prohibited cardiac treatment).
During the ongoing field trial three dogs are receiving a combined velagliflozin (0.5 mg/kg bodyweight orally once daily) and pimobendan treatment (daily dose of 0.5 mg/kg bodyweight orally divided into two portions that are not necessarily equal).
During the ongoing field trial four dogs are receiving a pimobendan only treatment (daily dose of 0.5 mg/kg bodyweight orally divided into two portions that are not necessarily equal).

[6] = system: dogs with a moderate degree of tachypacing-induced heart-failure [dilated cardiomyopathy (DCM) model]; experiment: Example 17 laboratory study (DCM model); assay type: in vivo, beagle dogs; settings: for creatinine levels / enhancements of diastolic function and performance (i.e., IVRT, E, E′-ave) / enhancements of values indicative of systolic function and performance (i.e., EF, FAS, Simpson EF, s′ wave, LVOT VTI, SV, CO, or SAX Strain) / urine glucose: tachypacing DCM model, three-month dosing
Protocol: A laboratory study is conducted to evaluate the effects of the SGLT2 inhibitor Velagliflozin with Pimobendan compared to Pimobendan alone and Velagliflozin alone in dogs with a moderate degree of tachypacing-induced heart-failure [dilated cardiomyopathy (DCM) model]. The study involves 12 beagle dogs, divided into three treatment groups, each containing four dogs, in two dosing phases (totaling eight dogs per group). The treatment groups are Pimobendan, Velagliflozin, and a combination of both (Pimobendan+Velagliflozin).
The dogs are implanted with a pacing generator in the right ventricle (Abbott-Johnson K et al., 2021) and subjected to two rounds of dosing for three months each. The heart failure is induced to a moderate degree (EF=˜40-45%) before the start of each dosing round, with the pacing rate maintained throughout the three-month dosing period. After each round, a washout period of about 21-28 days is given before the next round of dosing begins.
Various data are collected throughout the study, including 6-minute walk test, blood and urine analysis, and echocardiography data. The dogs undergo an anesthetized recovery procedure at the end of each three-month round, where systemic hemodynamics are recorded. A single dose of dobutamine is also administered to measure functional reserve at the end of each 3-month period.

For Cc1ccc([C@@H]2O[C@H](CO)[C@@H](O)[C@H](O)[C@H]2O)cc1Cc1ccc(-c2ccc(F)cc2)s1 [canagliflozin, Canagliflozin], the atrial remodeling [1] is listed as “suppresses”.
For CCOc1ccc(Cc2cc([C@@H]3O[C@H](CO)[C@@H](O)[C@H](O)[C@H]3O)ccc2Cl)cc1 [dapagliflozin, Dapagliflozin], the arrhythmogenesis [2] is listed as “mitigates” and the cardiac hemodynamics [2] is listed as “improves”.
In the case of OC[C@H]1O[C@@H](c2ccc(Cl)c(Cc3ccc(O[C@H]4CCOC4)cc3)c2)[C@H](O)[C@@H](O)[C@@H]1O [empagliflozin, Empagliflozin], the “adverse left ventricular remodeling” value [3] is given as “ameliorates” and the “risk for the composite endpoint of cardiovascular death or hospitalization due to heart failure” value [4] is given as “reduced”.
With COc1ccc(-c2nc3cc(C4=NNC(=O)CC4C)ccc3[nH]2)cc1 (stereo not shown) [pimobendan, 4,5-dihydro-6-[2-(4-methoxyphenyl)-1H-benzimidazol-5-yl]-5-methyl-3(2H)-pyridazinone] the MINE score ([5]; pimobendan only (0.5 mg/kg/day), first dog, Day 88, before: seven, progresses from moderate to severe disease state) was “eight”, the “other parameters measured (i.e. heart murmur)” value ([5]; pimobendan only, first dog) was “mainly unchanged” and the “Echo Parameter LA/Ao” value ([5]; pimobendan only, fourth dog, Day 42, Screening 1.88) was 1.61. For the same molecule, the MINE score ([5]; pimobendan only, fourth dog, Day 42, Screening: eight) was “six”, the “overall condition (owner score)” value ([5]; pimobendan only, fourth dog, Day 42, Screening: neutral) was “good” and the “exercise tolerance in the last 7 days (owner score)” value ([5]; pimobendan only, fourth dog, Day 42, Screening: very poor) was “good”. For the same molecule, the “overall condition and exercise tolerance in the last 7 days (owner report)” value ([5]; pimobendan only, second dog) was “improvement”, the “Echo-Parameter LA/Ao” value ([5]; pimobendan only, second dog, Day 55, Screening 2.14) was 1.96 and the “MINE score (echocardiographic parameters)” value ([5]; pimobendan only, second dog, Day 55, stable, severely diseased) was “eight”. For the same molecule, the “Echo-Parameter LA/Ao” value ([5]; pimobendan only, third dog, Day 48, Screening 1.60) was 1.53, the “overall condition of the owner score” value ([5]; pimobendan only, third dog, Day 48, Screening: neutral) was “good” and the “functional support with enhanced systolic and diastolic performance” value ([6]; for three months) was “clear and robust functional support”. The creatinine levels [6] was “does not affect”, the “enhancements of diastolic function and performance (i.e., IVRT, E, E′-ave)” value [6] was about 20% and the “enhancements of values indicative of systolic function and performance (i.e., EF, FAS, Simpson EF, s′ wave, LVOT VTI, SV, CO, or SAX Strain)” value [6] was about 30%. For the same molecule, the urine glucose [6] was “does not affect”.
In the case of N#Cc1ccc([C@@H]2O[C@H](CO)[C@@H](O)[C@H](O)[C@H]2O)cc1Cc1ccc(C2CC2)cc1 [velagliflozin, Velagliflozin], the creatinine levels [6] is reported as “lower”, the “enhancements of diastolic function and performance (i.e., IVRT, E, E′-ave)” value [6] is reported as “little-to-no support” and the “enhancements of values indicative of systolic function and performance (i.e., EF, FAS, Simpson EF, s′ wave, LVOT VTI, SV, CO, or SAX Strain)” value [6] is reported as “little-to-no support”. For the same molecule, the urine glucose [6] was “elevated”.

Reference: US20240390317A1, “COMBINATION TREATMENT AND/OR PREVENTION OF CARDIAC DISEASES IN NON-HUMAN MAMMALS COMPRISING ONE OR MORE SGLT-2 INHIBITORS AND PIMOBENDAN AND/OR TELMISARTAN” (BOEHRINGER INGELHEIM VETMEDICA GMBH, priority 2023, published 2024)
